Measurements published in patent publication US6617140B2.
“Also recorded” adds a separate entry of the source. Where two headings read alike, the source gives them in different places.

How the values were obtained:
L-proline-4-hydroxylase = L-proline-4-hydroxylase (Dactylosporangium salmoneum, UniProt A0ABP5TRQ3); test: Substrate omission and addition tests on the enzyme reaction (indispensable compounds, promoters, inhibitors); format: biochemical, Dactylosporangium sp. RH1; settings: for Relative Activity: 80 mM TES pH 7.5, 30° C., 15 minutes, standard reaction mixture = 100; for activity of the enzyme in the presence of the ion, of the original activity: ion at 1 mM
Procedure: The reaction was initiated by addition of the enzyme and continued for 15 minutes at 30° C. The reaction was stopped by heating the reaction mixture at 100° C. for 2 minutes. […] The reaction was stopped by adding 30 μl of 1 N HCl to the reaction mixture, and the precipitates formed were removed therefrom by centrifugation and filtration.
The HPLC for the determination was carried out under the following conditions: […]

[1] = substrate: O=C(O)CCC(=O)C(=O)O; test: purified protein, by the assay type; settings: other: 80 mM MES buffer (pH 6.5), 4 mM L-ascorbic acid, 2 mM ferrous sulfate
[2] = substrate: O=C(O)[C@@H]1CCCN1; test: purified protein, by the assay type; settings: other: 80 mM MES buffer (pH 6.5), 4 mM L-ascorbic acid, 2 mM ferrous sulfate

In the case of `[Fe+2]` [Fe^++], the “need of the component for the enzyme reaction (in words)” value (shortened to “need of the component”) (L-proline-4-hydroxylase) is reported as “indispensable” and the “Relative Activity” value (L-proline-4-hydroxylase; component not added (omitted)) is reported as 0.

`O=C(O)CN(CCN(CC(=O)O)CC(=O)O)CC(=O)O` [EDTA, ethylenediaminetetraacetic acid] was tested, and the “inhibition of the enzyme activity/reaction (in words)” value (L-proline-4-hydroxylase) was “inhibit the reaction”, the “activity of the enzyme in the presence of EDTA” value (L-proline-4-hydroxylase; 5 mM EDTA) was “no activity of the enzyme was detected” and the “Relative Activity” value (L-proline-4-hydroxylase; component added at 5 mM) was 0. The “inhibition of the enzyme activity/reaction (in words)” value (L-proline-4-hydroxylase; listed as ethylenediaminetetraacetic acid) was “inhibited”.

For `O=C(O)CCC(=O)C(=O)O` [2-ketoglutaric acid], the “need of the component” value (L-proline-4-hydroxylase) was “indispensable” and the “Relative Activity” value (L-proline-4-hydroxylase; component not added (omitted)) was 0.

In the case of `[Zn+2]` [Zn^++], the “inhibition of the enzyme activity/reaction (in words)” value (L-proline-4-hydroxylase) is reported as “inhibit the reaction; also recorded: inhibited”, the “Relative Activity” value (L-proline-4-hydroxylase; component added at 1 mM) is reported as 6 and the “activity of the enzyme in the presence of the ion, of the original activity” value (L-proline-4-hydroxylase) is reported as 6%.

For `O=C(O)[C@@H]1CCCN1` [L-proline], the “need of the component” value (L-proline-4-hydroxylase) was “indispensable” and the “Relative Activity” value (L-proline-4-hydroxylase; component not added (omitted)) was 0.

In the case of `[Cu+2]` [Cu^++], the “inhibition of the enzyme activity/reaction (in words)” value (L-proline-4-hydroxylase) is reported as “inhibit the reaction; also recorded: inhibited”, the “Relative Activity” value (L-proline-4-hydroxylase; component added at 1 mM) is reported as 13 and the “activity of the enzyme in the presence of the ion, of the original activity” value (L-proline-4-hydroxylase) is reported as 13%.

In the case of Catalase, the “Relative Activity” value (L-proline-4-hydroxylase; component not added (omitted)) is reported as 93.

For `O=C1O[C@H]([C@@H](O)CO)C(O)=C1O` [L-ascorbic acid], the “promotion of the enzyme activity/reaction (in words)” value (L-proline-4-hydroxylase) was “promotes the reaction”, the “Relative Activity” value (L-proline-4-hydroxylase; component not added (omitted)) was 51 and the “promotion of the enzyme activity/reaction (in words)” value (L-proline-4-hydroxylase; listed as Ascorbic acid) was “promotes the activity of the enzyme”. For the same molecule, the “promotion of the enzyme activity/reaction (in words)” value (L-proline-4-hydroxylase; listed as L-Ascorbic acid) was “accelerates the activity of the enzyme”.

B1: L-proline-4-hydroxylase (Dactylosporangium salmoneum) (protein)
chain: MLTPTELKQYREAGYLLIEDGLGPREVDCLRRAAAALYAQDSPDRTLEKDGRTVRAVHGCHRRDPVCRDLVRHPRLLGPAMQILSGDVYVHQFKINAKAPMTGDVWPWHQDYIFWAREDGMDRPHVVNVAVLLDEATHLNGPLLFVPGTHELGLIDVERRAPAGDGDAQWLPQLSADLDYAIDADLLARLTAGRGIESATGPAGSILLFDSRIVHGSGTNMSPHPRGVVLVTYNRTDNALPAQAAPRPEFLAARDATPLVPLPAGFALAQPV
Work on B1 yielded a Km [1] of 550 µM and a Km [2] of 270 µM.
